Measurements reported in patent US9487749B2 (priority 2009, dated 2016).
Entries after “also recorded” stand apart in the source; their conditions may differ.

Legend:
Format in all cases: cell-based
[1] = tested on: White Labs Edinburgh Ale yeast; assay: Fermentation efficiency in production of beer (Scotch Ale) with 0.5% MSM; details: for F.G. (Adjusted for Alc and Temp): 0.5% MSM fermentor
Text: This positive impact includes such organisms as fungi, yeast, and bacteria. Yeast cultures are involved in the production of beer during the fermentation process to produce ethanol and carbon dioxide. […] Wort is the liquid extracted from the mashing process during the brewing of beer or whisky. Wort contains the sugars that are fermented by the brewing yeast to produce alcohol. […] This Procedure is detailed below. […] (1) glass jugs, airlocks and funnel were thoroughly cleaned and then rinsed with beer sanitizer; (2) 1000 mLs of water was boiled then 100 grams of DME was added; (3) sample was boiled for 10 minutes; […] The Treatment Starter batch was then placed in a sanitized 64 ounce glass jug using to which 1-vial of White Labs Edinburgh Ale yeast was added. The airlock was applied and the entire vessel was placed in a dark room at room temperature for 48 hours. […] (1) glass jugs, airlocks and funnel were thoroughly cleaned and then rinsed with beer sanitizer; (2) 1000 mLs of water was boiled then 100 grams of DME was added; (3) sample was boiled for 10 minutes; (4) sample was removed from heat; and (5) solution was allowed to cool to 72° F. The Treatment Starter batch was then placed in a sanitized 64 ounce glass jug using to which 1-vial of White Labs Edinburgh Ale yeast was added. The airlock was applied and the entire vessel was placed in a dark room at room temperature for 48 hours. […] Materials to prepare the mash included the following: 18 lb of American 2-Row base grain; 3 lb of Crystal Malt 40 L specialty grain; 1 lb […] specialty grain; and water. A mash tun (a vessel used in the mashing process to convert the starches in crushed grains into sugars for fermentation) and Brew kettle were cleaned with powdered brewers wash and rinsed thoroughly. The mash tun was then sanitized (San Star Brewing Sanitizer). The following grains were crushed and milled for mashing: 18 lb of American 2-Row base grain; 3 lb of Crystal Malt 40 L specialty grain; and 1 lb […] specialty grain. […] The crushed grains were then added and the solution was mixed thoroughly. The lid was attached and the solution allowed to mash for 60 minutes. […] Strike water was preheated to 168° F., added to the mash tun and mix thoroughly with grain. The mixture was allowed to incubate for 10 minutes. […] After preparing the mash, the brewing process was started. […] Equipment was cleaned thoroughly with PBW. The wort chiller and filtered air stone were sanitized with brewing sanitizer (San Star Brewing Sanitizer). […] At 30 minutes of boil, a second aliquot (0.5 ounces) of Cascade hops was added. At 40 minutes of boil, third aliquot (0.5 ounces) of Cascade hops was added as well as 2 teaspoons of […] Moss. At 50 minutes of boil, a fourth aliquot (0.5 ounces) of Cascade hops was added. […] Each fermentor was Brix tested every 24 hours for 21 days. Both fermentors were aerated for 25 minutes with sanitized filtered air stone. MSM infused yeast was pitched into treatment fermentor vessel while unaltered yeast was pitched into control fermentor vessel. Blow-off tubes were attached to both fermentors and fermentation was allowed to proceed for 21 days.

[2] = tested on: ATCC strain 8739 Escherichia coli; assay: Bromcresol Purple colour change with E. coli
Experimental: Bromcresol Purple is an indicator dye that turns yellow in the presence of E. coli bacteria. […] All concentrations were plated out to 10^−7 dilutions to ascertain the log reduction.
Flake OptiMSM was weighed out using a certified Mettler Toledo AG245 balance SN: 1115210833 and aliquoted for each concentration. […] Tubes were cooled to room temperature which was approximately 20° C. All tubes were then spiked with the same dilution of Escherichia coli that gave a level of colony forming units at 6.0×10^6/mL (6.8). The tubes were then incubated at 25° C. Daily observation for color change was performed during the first seven days. The tubes were mixed periodically to ensure that the OptiMSM was well equilibrated at all times. A positive and negative control was ascertained.

Bacillus coagulans = assay: Viability and colony formation of Bacillus coagulans supplemented with MSM (population count, weight, percent transmittance); details: for Population Count Average / Population Weight Average: 72 hours; for Population Weight Average: washed pellet; for percent transmittance: 25×25 mm agar section, 546 nm
Experimental: At the end of the 72 hours, the broth was measured for colony formation, with photographic documentation of colony formation on tryptic soy agar. […] For the Bacillus coagulans, the organism was isolated and grown for 24 hours before harvesting. […] One milliliter of Dilution B was used to inoculate the 30 mL of TSB concentrations stated above. […] Each dilution for the microorganism was plated in triplicate for each sample. To capture the appropriate colonies per milliliter, the microorganism was plated at six different dilutions. […] The population count was based on the dilution of the tryptic soy broth after 72 hours and inoculation on to tryptic soy agar plates. The plates were incubated for 48 hours and enumerated. The tryptic soy broth after 72 hours was centrifuged down in a conical vial. The supernatant was pulled off and the pellet was washed. The centrifuging and washing was repeated three times. At the end of the third wash, the vials with pellet were weighed. Each vial was weighed empty and recorded. The corresponding vial weight was then subtracted from the ending weight of the pellet and vial, to get the weight of the Bacillus coagulans population. […] The slides were sealed to prevent the agar plug from slipping. The wavelength was set at 546 nm, and two empty slides were used as a blank. […] The weights indicated a heavier growth or a colony that was larger in size adding to the weight of the biomass. The percent transmittance was used to indicate Bacillus coagulans colony size in which a decrease in transmittance indicates an increase in colony size as the colony inhibited light from passing through the agar. […] It was observed that the percent transmittance result may be influenced by the sample size, sample location and agar variables.

CS(C)(=O)=O [MSM, Methylsulfonylmethane]
F.G. (Adjusted for Alc and Temp) ([1]; Day 1): 1.026
F.G. (Adjusted for Alc and Temp) ([1]; Day 2): 1.018
F.G. (Adjusted for Alc and Temp) ([1]; Day 3): 1.016
F.G. (Adjusted for Alc and Temp) ([1]; Day 4): 1.016
F.G. (Adjusted for Alc and Temp) ([1]; Day 5): 1.015
F.G. (Adjusted for Alc and Temp) ([1]; Day 6): 1.015
F.G. (Adjusted for Alc and Temp) ([1]; Day 7): 1.015
F.G. (Adjusted for Alc and Temp) ([1]; Day 8): 1.015
F.G. (Adjusted for Alc and Temp) ([1]; Day 9): 1.015
F.G. (Adjusted for Alc and Temp) ([1]; Day 10): 1.015
F.G. (Adjusted for Alc and Temp) ([1]; Day 11): 1.015
F.G. (Adjusted for Alc and Temp) ([1]; Day 12): 1.015
F.G. (Adjusted for Alc and Temp) ([1]; Day 13): 1.015
F.G. (Adjusted for Alc and Temp) ([1]; Day 14): 1.015
F.G. (Adjusted for Alc and Temp) ([1]; Day 15): 1.015
F.G. (Adjusted for Alc and Temp) ([1]; Day 16): 1.015
F.G. (Adjusted for Alc and Temp) ([1]; Day 17): 1.015
F.G. (Adjusted for Alc and Temp) ([1]; Day 18): 1.015
F.G. (Adjusted for Alc and Temp) ([1]; Day 19): 1.015
F.G. (Adjusted for Alc and Temp) ([1]; Day 20): 1.015
F.G. (Adjusted for Alc and Temp) ([1]; Day 21): 1.015
time to maximum fermentation ([1]; 0.5% MSM treatment batch): 5 days
sooner time of completion ([1]; 0.5% MSM treatment batch vs control (6 days)): 17-25%
time to activity ([1]; fermentor with 0.5% MSM): 3.5 h
activity sooner than the control ([1]; fermentor with 0.5% MSM (3.5 hours compared to 9 hours)): 58%
activity sooner than the control ([1]; yeast starter with 0.5% MSM (2 hours compared to 10 hours)): 80%
Bromcresol Purple colour of the broth ([2]; 5-7% MSM, Day one): color change of the broth to yellow
Bromcresol Purple colour of the broth ([2]; 8% MSM, listed as order: Day one, Day three): slight clearing of color; also recorded: turning to the typical yellow color
Bromcresol Purple colour of the broth ([2]; 9% MSM, Day 7): turning to a yellow color
Bromcresol Purple colour of the broth ([2]; 10%-16% MSM, listed as order: Day 7, Day 30): No color change; also recorded: no signs of change
Population Count Average (Bacillus coagulans; 1.0% MSM in TSB): 1.01 × 10^11
Population Weight Average (Bacillus coagulans; 1.0% MSM in TSB): 0.1363
percent transmittance (Bacillus coagulans; 1.0% MSM): 51.5%
Population Count Average (Bacillus coagulans; 5.0% MSM in TSB): 2.8 × 10^11
Population Weight Average (Bacillus coagulans; 5.0% MSM in TSB): 0.1260
percent transmittance (Bacillus coagulans; 5.0% MSM): 45.6%
Population Count Average (Bacillus coagulans; […] MSM in TSB): 3.3 × 10^11
Population Weight Average (Bacillus coagulans; […] MSM in TSB): 0.9828
percent transmittance (Bacillus coagulans; […] MSM): 49.8%
